Data as given in patent publication US8029764B2, “Methods for detection of colorectal cancer” (The Johns Hopkins University, priority 2001, dated 2011).

System: colorectal tissue transcripts
Test: SAGE of normal, adenoma and cancer colorectal tissue (transcript tag counts)
Set-up: species or system human
How it was run: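 SAGE libraries from two normal colonic epithelium samples, two colorectal adenomas (FAP patients, >70% neoplastic cells) and two colorectal cancers. Transcripts counted as 15-base 3′ tags from oligo(dT)-selected mRNA; repeated ditags, linkers and MHC-locus tags excluded before statistical library comparison.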

[1] = normal colorectal tissue library 1
[2] = normal colorectal tissue library 2

| Sequence | AD1 (SAGE tag count) (SAGE library AD1) | AD2 (SAGE tag count) (SAGE library AD2) | CA1 (SAGE tag count) (SAGE library CA1) | CA2 (SAGE tag count) (SAGE library CA2) | NC1 (SAGE tag count) (SAGE library NC1) | NC2 (SAGE tag count) (SAGE library NC2) | AD1 (SAGE tag count) (adenoma library 1) | AD2 (SAGE tag count) (adenoma library 2) | CA1 (SAGE tag count) (cancer library 1) | CA2 (SAGE tag count) (cancer library 2) | NC1 (SAGE tag count) [1] | NC2 (SAGE tag count) [2] |
| --- | --- | --- | --- | --- | --- | --- | --- | --- | --- | --- | --- | --- |
| CGGTGGGACC (target site or template, no part of the molecule; chemistry not given here) | 1 | 1 | 3 | 3 | 7 | 14 |  |  |  |  |  |  |
| CTGGCTATCC (chemistry not fully specified) | 0 | 0 | 0 | 1 | 7 | 3 |  |  |  |  |  |  |
| AGGCCAAGGG (chemistry not fully specified) | 3 | 1 | 3 | 4 | 21 | 6 |  |  |  |  |  |  |
| CTCAGAACTT (chemistry not fully specified) | 1 | 0 | 0 | 0 | 18 | 3 |  |  |  |  |  |  |
| CGGACTCACT (chemistry not fully specified) | 5 | 14 | 14 | 10 | 20 | 45 |  |  |  |  |  |  |
| ACATTGGGTG (chemistry not fully specified) | 67 | 34 | 96 | 33 | 377 | 334 |  |  |  |  |  |  |
| GCACCCTTTC (chemistry not fully specified) | 0 | 0 | 1 | 0 | 13 | 5 |  |  |  |  |  |  |
| ACCTGCATCC (chemistry not fully specified) | 0 | 0 | 0 | 0 | 0 | 12 |  |  |  |  |  |  |
| TTTAACGGCC (chemistry not fully specified) |  |  |  |  |  |  | 36 | 35 | 11 | 30 | 93 | 67 |
| TTTTTACTGA (chemistry not fully specified) |  |  |  |  |  |  | 10 | 10 | 8 | 1 | 32 | 19 |
| CCACTGCACC (chemistry not fully specified) | 5 | 5 | 6 | 14 | 21 | 19 |  |  |  |  |  |  |
| ACAGGGTGAC (chemistry not fully specified) | 1 | 8 | 7 | 6 | 25 | 13 |  |  |  |  |  |  |
| GTATTGGGGC (chemistry not fully specified) | 0 | 0 | 0 | 0 | 5 | 7 |  |  |  |  |  |  |
| GCGCAGAGGT (chemistry not fully specified) | 1 | 0 | 0 | 1 | 2 | 16 |  |  |  |  |  |  |
| GGAACAGGGG (chemistry not fully specified) | 1 | 0 | 0 | 2 | 1 | 13 |  |  |  |  |  |  |
| CCTGCTTGTC (chemistry not fully specified) | 0 | 3 | 0 | 5 | 20 | 23 |  |  |  |  |  |  |
| GCCATCCTCC (chemistry not fully specified) | 0 | 1 | 0 | 0 | 9 | 13 |  |  |  |  |  |  |
| AATAGTTTCC (chemistry not fully specified) | 2 | 3 | 6 | 1 | 7 | 16 |  |  |  |  |  |  |
| AGAATAGCTT (chemistry not fully specified) | 3 | 9 | 11 | 30 | 44 | 67 |  |  |  |  |  |  |
| GGGGCAGGGC (chemistry not fully specified) | 27 | 10 | 15 | 31 | 48 | 64 |  |  |  |  |  |  |
| GCCACATACT (chemistry not fully specified) | 0 | 0 | 0 | 0 | 3 | 9 |  |  |  |  |  |  |
| GCACAGGTCA (chemistry not fully specified) | 1 | 0 | 1 | 1 | 5 | 9 |  |  |  |  |  |  |
| TGCAGCGCCT (chemistry not fully specified; the letters are possibly those of the target site) |  |  |  |  |  |  | 1 | 1 | 1 | 1 | 16 | 9 |
| AAGAAAGCTC (chemistry not fully specified) | 0 | 2 | 1 | 5 | 20 | 6 |  |  |  |  |  |  |
| CCCAACGCGC (chemistry not fully specified) | 3 | 5 | 0 | 2 | 106 | 1 |  |  |  |  |  |  |
| TTCTGTAGCC (chemistry not fully specified) |  |  |  |  |  |  | 4 | 2 | 4 | 2 | 13 | 23 |
| GCTTGGGGAT (chemistry not fully specified) | 2 | 0 | 0 | 0 | 11 | 8 |  |  |  |  |  |  |
| GGATGGCTTA (chemistry not fully specified) | 2 | 1 | 1 | 1 | 25 | 5 |  |  |  |  |  |  |
